Test results from PMC10634346 (Cancer Research Communications, 2023).

Experiments:
[1] = test system: Myc and Mcl-1 protein in SU-DHL-10 cells; test: In vitro washout, Myc and Mcl-1 protein Western blot, SU-DHL-10; type: cell-based, human; conditions: 1 µmol/L, 4 h treatment then washout
Experimental: Evaluation of the pharmacodynamic extent and duration of CDK9 inhibition were performed in vitro using the human DLBCL cell lines SU-DHL-4 and SU-DHL-10, harboring MYC amplification and MYC overexpression with P57T mutation, respectively. Cells were seeded 18 hours prior to treatment for 4 hours with one of three CDK9 inhibitors, enitociclib (0.25 and1 µmol/L), atuveciclib (1 µmol/L) or KB-0742 (1 µmol/L), cells were washed, and incubation continued until 48 hours posttreatment. Samples were collected before treatment (−4), immediately after treatment (0), and at 1, 2, 4, 8, 12, 16, 24, and 48 hours after washout for RNA sequencing (RNA-seq), qPCR, and Western blotting analyses.
The levels of p-Ser2, p-Ser5 and total RNA polymerase II, Myc, Mcl-1, cleaved PARP (cPARP), and cleaved Caspase 3 were assessed by Western blotting and quantified near-infrared detection and background corrected quantification of fluorescence intensity on an Odyssey Imaging System with IRDye secondary antibodies (LI-COR Biosciences). For quantification, the protein levels were normalized to GAPDH or HSP90, expressed as a ratio to DMSO or vehicle control at matched timepoints. The normalized relative protein levels of p-Ser2 were used for a treatment effect comparison by performing an ANOVA using PROC MIXED in SAS. The ANOVA model included treatment, timepoints and their interactions as fixed effects. […]

[2] = test system: p-Ser2 RNA polymerase II in SU-DHL-10 tumors; test: Pharmacodynamics in SU-DHL-10 xenograft tumors, p-Ser2; type: in vivo, C.B-17 SCID mice
Experimental: (§1) The levels of p-Ser2, p-Ser5 and total RNA polymerase II, Myc, Mcl-1, cleaved PARP (cPARP), and cleaved Caspase 3 were assessed by Western blotting and quantified near-infrared detection and background corrected quantification of fluorescence intensity on an Odyssey Imaging System with IRDye secondary antibodies (LI-COR Biosciences). For quantification, the protein levels were normalized to GAPDH or HSP90, expressed as a ratio to DMSO or vehicle control at matched timepoints. The normalized relative protein levels of p-Ser2 were used for a treatment effect comparison by performing an ANOVA using PROC MIXED in SAS. The ANOVA model included treatment, timepoints and their interactions as fixed effects. The least square means (LSM), differences between the LSMs and associated P values were generated. The following primary antibodies were used: Rpb1 NTD (D8L4Y) rabbit antibody [Cell Signaling Technology (CST), #14958], anti-RNA polymerase II subunit B1 (phospho CTD Ser-2, clone 3E10) rat antibody (Merck, 04-1571-I), recombinant anti-c-MYC rabbit antibody (Y69; Abcam, #ab32072), MCL1 (D5V5L) rabbit antibody (CST, #39224), cleaved-PARP (Asp214) (E2T4K) mouse antibody (CST, #32563), HSP90 (C45G5) rabbit antibody (CST, #4877), and GAPDH mouse antibody (Zytomed Systems, #ZYT-RGM2-6C5). […]

[3] = test system: MYC mRNA in SU-DHL-10 tumors; test: Pharmacodynamics in SU-DHL-10 xenograft tumors, MYC mRNA qPCR; type: in vivo, C.B-17 SCID mice; conditions: single dose 10 and 15 mg/kg
Experimental: Total RNA was extracted from blood of patients and cell lines using RNeasy Plus Mini Kit (QIAGEN, #74136) and cDNA prepared with the Maxima First Strand cDNA Synthesis Kit for RT-PCR (Thermo Fisher Scientific, K1642) according to manufacturer's instructions. The integrity of purified total RNA was evaluated using an Agilent 2100 Bioanalyzer system and RNA 6000 Nano Kit (Agilent, #5067-1511). Differential gene expression analysis was performed (Fios Genomics) from RNA-seq data (Discovery Life Sciences). MYC and MCL1 mRNA levels were measured by qPCR in vitro and in vivo, using a Taqman qPCR system (Thermo Fisher Scientific), TaqMan Fast Universal PCR Master Mix (2X) no AmpErase (#4352042) and TaqMan probes for MYC (Hs00153408_m1) and MCL1 (Hs03043899_m1). RNA-seq data were analyzed using DESeq2 ([35]).
A total of 10 × 10^6 SU-DHL-10 cells were inoculated subcutaneously into 6–8 weeks old female C.B-17 SCID mice (Iffa Credo, Brussels). The mice were randomized to treatment groups at a tumor volume of 63–104 mm^3 and treated (intravenously, once weekly) with 10 mg/kg enitociclib (60% PEG400, 10% ethanol, water), 15 mg/kg enitociclib (30% PEG400, 10% ethanol, water), or corresponding vehicle treatments. Mice were around 10–12 weeks of age at the start of study. All animal experiments were performed under the national animal welfare laws of Germany and approved by the local authorities.

[4] = test system: Mcl-1 protein in SU-DHL-10 tumors; test: Pharmacodynamics in SU-DHL-10 xenograft tumors, Mcl-1 protein; type: in vivo, C.B-17 SCID mice; conditions: single dose; within 4 to 8 hours postdose
Experimental: as §1

[5] = Fraction unbound (fu) used for patient unbound Cmax; type: in vitro ADME; conditions: human, plasma; patients

## COc1cc(F)ccc1-c1cc(Nc2cc(CS(C)(=N)=O)ccn2)ncc1F (stereo not drawn) [enitociclib]
[1]
  duration of sustained Myc and Mcl-1 protein depletion: 48 h
[2]; single dose 5 mg/kg, for 8 hours
  decrease of p-Ser2 levels in tumors: greater than 50%
[2]; single dose 10 and 15 mg/kg, 8 hours postdose timeframe
  p-Ser2 in tumors (in words): depletion of p-Ser2
[3]
  MYC mRNA in tumors (in words): depleted by 4 hours postdose
[4]
  Mcl-1 protein levels in tumors (in words): robustly decreased
[5]
  fraction unbound: 0.0665
